Assay results: US20260042755A1, “GPR6 INVERSE AGONISTS” (MapLight Therapeutics, Inc., priority 2022, published 2026)

What was measured:
GPR6 = biological target: T1, GPR6 (Homo sapiens, UniProt P46095); test: GPR6 antagonist functional cAMP assay (LANCE Ultra cAMP TR-FRET, CHO cells stably expressing GPR6); type: cell-based
T1 construct: expressed in transfected cells; host or cells: CHO cells
Procedure, shortened: (§1)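 Stable CHO-GPR6 or CHO-GPR3 cells (10,000/well) in Krebs-Ringer buffer with 0.1% BSA and 150 μM Ro 20-1724 were exposed to compounds for 45 min at 37° C (0.1% DMSO). cAMP read by LANCE Ultra TR-FRET; IC50 from 4-parameter fit normalized to DMSO and reference compounds.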

GPR3 = biological target: T2, GPR3 (Homo sapiens, UniProt P46089); test: GPR3 antagonist functional cAMP assay (LANCE Ultra cAMP TR-FRET, CHO cells stably expressing GPR3); type: cell-based
T2 construct: expressed in transfected cells; host or cells: CHO cells
Procedure, shortened: as §1

[1] = CHO cells stably expressing GPR6, cAMP assay (Example 24)
[2] = CHO cells stably expressing GPR3, cAMP assay (Example 24)
[3] = CHO cells stably expressing GPR6, cAMP assay
[4] = CHO cells stably expressing GPR3, cAMP assay
[5] = procedure as described in Example 24

T1 sequence (P46095 whole entry): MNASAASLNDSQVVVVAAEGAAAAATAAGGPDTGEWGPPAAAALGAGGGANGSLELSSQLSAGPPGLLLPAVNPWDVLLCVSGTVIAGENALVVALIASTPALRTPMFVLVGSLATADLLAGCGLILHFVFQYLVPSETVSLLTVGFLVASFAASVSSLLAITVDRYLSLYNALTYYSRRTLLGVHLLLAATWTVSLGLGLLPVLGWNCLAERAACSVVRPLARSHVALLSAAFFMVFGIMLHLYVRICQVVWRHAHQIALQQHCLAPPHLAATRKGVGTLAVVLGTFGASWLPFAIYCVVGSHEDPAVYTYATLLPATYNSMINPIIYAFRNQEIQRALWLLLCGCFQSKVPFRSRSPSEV
T2 sequence (P46089 whole entry, species assumed): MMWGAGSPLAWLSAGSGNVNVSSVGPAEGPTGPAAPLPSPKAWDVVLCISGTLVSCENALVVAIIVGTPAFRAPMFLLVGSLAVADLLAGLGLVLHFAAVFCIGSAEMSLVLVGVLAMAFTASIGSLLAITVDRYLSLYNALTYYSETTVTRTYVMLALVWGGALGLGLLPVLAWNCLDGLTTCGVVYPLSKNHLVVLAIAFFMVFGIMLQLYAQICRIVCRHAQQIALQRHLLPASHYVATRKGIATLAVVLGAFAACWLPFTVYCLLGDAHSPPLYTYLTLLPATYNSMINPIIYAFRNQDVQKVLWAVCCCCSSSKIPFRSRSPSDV

What does the source list for `CS(=O)(=O)N1CCc2nc(N3CCC(Oc4ccc(F)cc4F)CC3)c(-c3cn[nH]c3)nc2C1` [Compound 70, 2-(4-(2,4-difluorophenoxy)piperidin-1-yl)-6-(methylsulfonyl)-3-(1H-pyrazol-4-yl)-5,6,7,8-tetrahydropyrido[3,4-b]pyrazine]?
IC50 (GPR6; [1]): 100 to 1000 nM; IC50 (GPR3; [2]): 1000 to 30000 nM

What does the source list for `Cn1cc(-c2nc3cc([C@](C)(O)CO)ncc3nc2N2CCC(Oc3ccc(F)cc3F)CC2)cn1` (single isomer, unassigned) [Compound 691]?
IC50 (GPR6; procedure of Example 24): 100 to 1000 nM; IC50 (GPR3; procedure of Example 24): 1000 to 30000 nM

For `CC(C)(O)[C@@H](O)c1cc2nc(N3CCC(Oc4ccc(F)cc4F)CC3)c(-c3cnn(C(F)F)c3)nc2cn1` (single isomer, unassigned) [Compound 555], which IC50 (GPR6; [3]) is on record?
The IC50 was 100 to 1000 nM.

And the IC50 (GPR3; [4])?
The IC50 was 1000 to 30000 nM.

With `CC(C)(O)[C@H](O)c1cc2nc(N3CCN(Cc4ccccc4F)CC3)c(-c3cnn(CF)c3)nc2cn1` (single isomer, unassigned) [Compound 648] as the molecule, how does the IC50 (GPR6; procedure of Example 24) read?
The IC50 was 100 to 1000 nM.

And the IC50 (GPR3; procedure of Example 24)?
The IC50 was 1000 to 30000 nM.

How did the IC50 (GPR6; procedure of Example 24) turn out when `COC(=O)/C(C)=C/c1cc2nc(N3CCC(Oc4ccc(F)cc4F)CC3)c(-c3cnn(C)c3)nc2cn1` [Compound 734, methyl 3-{2-[4-(2,4-difluorophenoxy)-1-piperidyl]-3-(1-methyl-4-pyrazolyl)-1,4,6-triaza-7-naphthyl}methacrylate] was run?
The IC50 was 1000 to 30000 nM.

And the IC50 (GPR3; procedure of Example 24)?
The IC50 was 1000 to 30000 nM.

With `CN(c1ccc(F)cc1F)C1CCN(c2nc3ccncc3nc2-c2cn[nH]c2)CC1` [Compound 55, 1-(3-(1H-pyrazol-4-yl)pyrido[3,4-b]pyrazin-2-yl)-N-(2,4-difluorophenyl)-N-methylpiperidin-4-amine] as the molecule, how does the IC50 (GPR6; [5]) read?
The IC50 was 1000 to 30000 nM.

And the IC50 (GPR3; [5])?
The IC50 was 1000 to 30000 nM.

What does the source list for `CC(=O)N1CCc2nc(N3CCC(Oc4ccc(F)cc4F)CC3)c(C3=CC(O)CCC3)nc2C1` (stereo not shown) [Compound 234, 1-{2-[4-(2,4-difluorophenoxy)piperidin-1-yl]-3-(3-hydroxycyclohex-1-en-1-yl)-5H,6H,7H,8H-pyrido[3,4-b]pyrazin-6-yl}ethan-1-one]?
IC50 (GPR6; [1]): 1000 to 30000 nM; IC50 (GPR3; [2]): 1000 to 30000 nM

What does the source list for `CC(C)(O)C(=O)c1cc2nc(N3CCN(Cc4ccc(F)cc4F)CC3)c(-c3cnn(C(F)F)c3)nc2cn1` [Compound 566, 1-{3-[1-(difluoromethyl)-4-pyrazolyl]-2-{4-[(2,4-difluorophenyl)methyl]-1-piperazinyl}-1,4,6-triaza-7-naphthyl}-2-hydroxy-2-methyl-1-propanone]?
IC50 (GPR6; [3]): 100 to 1000 nM; IC50 (GPR3; [4]): 1000 to 30000 nM

Which IC50 (GPR6; procedure of Example 24) does the source give for `CC(C)(O)[C@H](O)c1cc2nc(-c3cnn(C4CC4)c3)c(N3CCN(Cc4ccccc4F)CC3)nc2cn1` (single isomer, unassigned) [Compound 781] here?
Its IC50 is 100 to 1000 nM.

And the IC50 (GPR3; procedure of Example 24)?
Its IC50 is 1000 to 30000 nM.

With `CNc1cccc(-c2nc3c(nc2N2CCC(Oc4ccc(F)cc4F)CC2)CCN(C(C)=O)C3)n1` [Compound 117, 1-{2-[4-(2,4-difluorophenoxy)piperidin-1-yl]-3-[6-(methylamino)pyridin-2-yl]-5H,6H,7H,8H-pyrido[3,4-b]pyrazin-6-yl}ethan-1-one] as the molecule, how does the IC50 (GPR6; [1]) read?
The IC50 was 100 to 1000 nM.

And the IC50 (GPR3; [2])?
Its IC50 is 1000 to 30000 nM.

Which IC50 (GPR6; [3]) does the source give for `COc1cc(F)c(OC2CCN(c3nc4c(nc3-c3cnn(C)c3)CN(C(C)=O)CC4)CC2)cc1Cl` [Compound 503, 1-{2-[4-(5-chloro-2-fluoro-4-methoxyphenoxy)-1-piperidyl]-3-(1-methyl-4-pyrazolyl)-5,6,7,8-tetrahydro-1,4,6-triaza-6-naphthyl}-1-ethanone] here?
The IC50 was 1000 to 30000 nM.

What about the IC50 (GPR3; [4]) of the same molecule?
Its IC50 is 1000 to 30000 nM.

`COCCNc1cc2nc(-c3cnn(CF)c3)c(N3CCN(Cc4ccc(F)cc4F)CC3)nc2cn1` [Compound 762, (2-methoxyethyl)(3-{4-[(2,4-difluorophenyl)methyl]-1-piperazinyl}-2-[1-(fluoromethyl)-4-pyrazolyl]-1,4,6-triaza-7-naphthyl)amine] was tested. Which IC50 (GPR6; procedure of Example 24) did it give?
Its IC50 is 1000 to 30000 nM.

And the IC50 (GPR3; procedure of Example 24)?
Its IC50 is 1000 to 30000 nM.

`COc1cc(-c2nc3c(nc2N2CCC(Oc4ccc(F)cc4F)CC2)CCN(C(C)=O)C3)cnn1` [Compound 235, 1-{2-[4-(2,4-difluorophenoxy)piperidin-1-yl]-3-(6-methoxypyridazin-4-yl)-5H,6H,7H,8H-pyrido[3,4-b]pyrazin-6-yl}ethan-1-one] was tested. Which IC50 (GPR6; [1]) did it give?
Its IC50 is 1000 to 30000 nM.

And the IC50 (GPR3; [2])?
The IC50 was 1000 to 30000 nM.

`CC(=O)N1CCc2nc(N3CCC([C@@H](F)c4ccc(F)cc4F)CC3)c(-c3cnn(C)c3)nc2C1` (single isomer, unassigned) [Compound 659] was tested. Which IC50 (GPR6; procedure of Example 24) did it give?
Its IC50 is < 100 nM.

And the IC50 (GPR3; procedure of Example 24)?
Its IC50 is 100 to 1000 nM.

Which results are given for `CC(=O)N1CCc2nc(N3CCC(Oc4ccc(F)cc4F)CC3)c(-c3cccc(OC(C)C)n3)nc2C1` [Compound 39, 1-{2-[4-(2,4-difluorophenoxy)piperidin-1-yl]-3-[6-(propan-2-yloxy)pyridin-2-yl]-5H,6H,7H,8H-pyrido[3,4-b]pyrazin-6-yl}ethan-1-one]?
IC50 (GPR6; [5]): 1000 to 30000 nM; IC50 (GPR3; [5]): 100 to 1000 nM

For `CC(=O)N1CCc2nc(N3CCC(C(O)c4ccc(F)cc4F)CC3)c(-c3cnn(C)c3)nc2C1` (stereo not shown) [Compound 545, 1-(2-{4-[(2,4-difluorophenyl)hydroxymethyl]-1-piperidyl}-3-(1-methyl-4-pyrazolyl)-5,6,7,8-tetrahydro-1,4,6-triaza-6-naphthyl)-1-ethanone], which IC50 (GPR6; [3]) is on record?
Its IC50 is 100 to 1000 nM.

And the IC50 (GPR3; [4])?
The IC50 was 1000 to 30000 nM.

Which IC50 (GPR6; [1]) does the source give for `Cn1cc(-c2nc3cnccc3nc2N2CCN(C(=O)c3ccc(F)cc3F)CC2)cn1` [Compound 128, (2,4-difluorophenyl)(4-(3-(1-methyl-1H-pyrazol-4-yl)pyrido[3,4-b]pyrazin-2-yl)piperazin-1-yl)methanone] here?
The IC50 was 1000 to 30000 nM.

And the IC50 (GPR3; [2])?
The IC50 was ≥ 30000 nM.

What does the source list for `CC(=O)N1CCc2nc(N3CCC(Oc4ccc(F)cc4F)CC3)c(-c3ccc(F)c(N)n3)nc2C1` [Compound 372, 1-{3-(6-amino-5-fluoro-2-pyridyl)-2-[4-(2,4-difluorophenoxy)-1-piperidyl]-5,6,7,8-tetrahydro-1,4,6-triaza-6-naphthyl}-1-ethanone]?
IC50 (GPR6; procedure of Example 24): 100 to 1000 nM; IC50 (GPR3; procedure of Example 24): 1000 to 30000 nM

How did the IC50 (GPR6; [3]) turn out when `CC(C)(O)C(O)c1cc2nc(-c3cnn(CF)c3)c(N3CCN(Cc4ccc(F)cc4F)CC3)nc2cn1` (single isomer, unassigned) [Compound 602] was run?
The IC50 was 100 to 1000 nM.

What about the IC50 (GPR3; [4]) of the same molecule?
The IC50 was 100 to 1000 nM.

Which IC50 (GPR6; procedure of Example 24) does the source give for `CCOc1ccc(CN2CCN(c3nc4c(nc3-c3cnn(C)c3)CN(C(C)=O)CC4)CC2)c(F)c1` [Compound 362, 1-(2-{4-[(4-ethoxy-2-fluorophenyl)methyl]piperazin-1-yl}-3-(1-methyl-1H-pyrazol-4-yl)-5H,6H,7H,8H-pyrido[3,4-b]pyrazin-6-yl)ethan-1-one] here?
The IC50 was 1000 to 30000 nM.

And the IC50 (GPR3; procedure of Example 24)?
Its IC50 is 1000 to 30000 nM.

With `CC(=O)N1CCc2nc(N3CCN(Cc4c(F)cccc4F)CC3)c(-c3cnn(C)c3)nc2C1` [Compound 346, 1-(2-{4-[(2,6-difluorophenyl)methyl]piperazin-1-yl}-3-(1-methyl-1H-pyrazol-4-yl)-5H,6H,7H,8H-pyrido[3,4-b]pyrazin-6-yl)ethan-1-one] as the molecule, how does the IC50 (GPR6; procedure of Example 24) read?
Its IC50 is 1000 to 30000 nM.

And the IC50 (GPR3; procedure of Example 24)?
Its IC50 is 100 to 1000 nM.

How did the IC50 (GPR6; [1]) turn out when `CC(=O)N1CCc2nc(N3CCC(Oc4ccc(F)cc4F)CC3)c(-c3cc[nH]c(=O)c3)nc2C1` [Compound 66, 4-{6-acetyl-2-[4-(2,4-difluorophenoxy)piperidin-1-yl]-5H,6H,7H,8H-pyrido[3,4-b]pyrazin-3-yl}-1,2-dihydropyridin-2-one] was run?
The IC50 was 1000 to 30000 nM.

What about the IC50 (GPR3; [2]) of the same molecule?
Its IC50 is 1000 to 30000 nM.

How did the IC50 (GPR6; [1]) turn out when `CC(=O)N1CCc2nc(N3CCC(Oc4ccc(F)cc4F)CC3)c(-c3cnn(CF)c3)nc2C1` [Compound 439, 1-{2-[4-(2,4-difluorophenoxy)piperidin-1-yl]-3-[1-(fluoromethyl)-1H-pyrazol-4-yl]-5H,6H,7H,8H-pyrido[3,4-b]pyrazin-6-yl}ethan-1-one] was run?
The IC50 was < 100 nM.

And the IC50 (GPR3; [2])?
Its IC50 is 1000 to 30000 nM.
